{"source": "patent US8158606B2", "about": "“β-L-2′-deoxynucleosides for the treatment of resistant HBV strains and combination therapies” (priority 2002, dated 2012)", "key": {"[1]": {"assay": "Log P study, octanol-1 / phosphate buffer", "description": "To 1 mL of this solution, 1 mL of octanol-1 (B) saturated with 0.02 M phosphate buffer solution (A) was added. The resultant mixture was shaken and centrifuged; three samples from each phase was collected and analyzed by HPLC, as shown in Table 10.\nThe solution was then saturated with octanol-1 (B). To 1 mL of this solution, 1 mL of octanol-1 (B) saturated with 0.02 M phosphate buffer solution (A) was added. The resultant mixture was shaken and centrifuged; three samples from each phase was collected and analyzed by HPLC, as shown in Table 11."}, "[2]": {"assay_type": "physicochemical", "conditions": "octanol-1 (B) / MilliQ water pH 6.5 (A′), Study 1 and Study 2, listed as L-dC-3′,5′-divalinyl ester hydrochloride", "description": "(§1) To 1 mL of this solution, 1 mL of octanol-1 (B) saturated with MilliQ water (A′) was added.\nas §1"}, "[3]": {"assay": "Stability study in buffer at pH 7.4, 7.20, 4.5 and 1.2", "assay_type": "physicochemical", "conditions": "no other compounds detected up to 48 hours"}, "[4]": {"assay_type": "in vivo, cynomolgus monkey (Macaca fascicularis)", "text": "The drug was quantitated in plasma and urine with a liquid chromatography-mass spectrometry (LC-MS) technique."}, "[5]": {"conditions": "dival-L-dC 10 mg/kg oral", "text": "The drug was quantitated in plasma and in urine using HPLC analysis."}, "[6]": {"assay": "In vitro stability of dival-L-dC in human plasma", "assay_type": "in vitro ADME", "conditions": "37° C.", "text": "Two additional metabolites (β-L-2′-deoxycytidine-5′-valine ester and β-L-2′-deoxycytidine-valine ester) were also noted."}, "human plasma proteins": {"test_system": "human plasma proteins", "assay_type": "in vitro ADME", "conditions": "ex vivo, ultrafiltration"}, "[7]": {"assay": "Bioavailability of the prodrugs of L-dC", "conditions": "oral administration to monkeys"}, "[8]": {"assay": "Solubility study in water (HPLC calibration)", "conditions": "listed as 3′,5′-divalinyl ester hydrochloride of β-L-dC, hydrochloride"}, "[9]": {"conditions": "during the log P experiment in phosphate buffer"}}, "note": "Where “and” joins values, the source holds several entries; their conditions need not be identical. Equal values may be shown once. Where a name gives a salt, the structure may show the parent alone. Read-outs that look alike come from different tables or passages of the source.", "data": [{"smiles": "CC(C)[C@H](N)C(=O)OC[C@@H]1O[C@H](n2ccc(N)nc2=O)C[C@H]1OC(=O)[C@@H](N)C(C)C", "note": "[3′5′-dival-L-dC, 3,5′-L-Valine ester of 2′-deoxy-β-L-cytidine hydrochloride]", "values": [{"measurement": "conversion of the divaline ester detected in the aqueous phase", "setting": "[1]; [9]", "value": 50, "unit": "%"}, {"measurement": "conversion of the divaline ester detected in the organic phase", "setting": "[1]; [9]", "value": 14, "unit": "%"}, {"measurement": "log P (octanol/water)", "setting": "[1]; octanol-1 / 0.02 M phosphate buffer pH 7.2", "value": "−0.86"}, {"measurement": "P′ (B/A′)", "setting": "[2]", "value": "1.80 × 10^−3 and 1.77 × 10^−3"}, {"measurement": "stability in words", "setting": "[3]", "value": "fully stable"}, {"measurement": "Cmax of val-L-dC (unchanged prodrug)", "setting": "[4]; Oral (10 mg/kg dival-L-dC)", "value": "Not detected"}, {"measurement": "L-dC as share of drug excreted in the urine", "setting": "[4]; dival-L-dC 10 mg/kg IV", "value": "~93", "unit": "%"}, {"measurement": "administered dose excreted in urine within 2 hours", "setting": "[4]; dival-L-dC 10 mg/kg IV", "value": "58±3", "unit": "%"}, {"measurement": "renal excretion of L-dU, share of total recovered dose", "setting": "[4]; dival-L-dC 10 mg/kg IV", "value": "approximately 2.5%"}, {"measurement": "renal excretion of β-L-2′-deoxycytidine-5′-valine ester, share of total recovered dose", "setting": "[4]; dival-L-dC 10 mg/kg IV", "value": "~3.7", "unit": "%"}, {"measurement": "β-L-2′-deoxycytidine-5′-valine ester in plasma at 15 minutes", "setting": "[4]; dival-L-dC 10 mg/kg IV", "value": 3.23, "unit": "µM"}, {"measurement": "β-L-2′-deoxycytidine-5′-valine ester in plasma by 2 hours", "setting": "[4]; dival-L-dC 10 mg/kg IV", "value": 0.08, "unit": "µM"}, {"measurement": "dival-L-dC in plasma at 30 minutes", "setting": "[4]; dival-L-dC 10 mg/kg IV, 1 of 3 animals", "value": 0.36, "unit": "µM"}, {"measurement": "dival-L-dC in urine, share of the recovered dose", "setting": "[4]; dival-L-dC 10 mg/kg IV, one of three animals at 2 hours", "value": "approximately 0.15%"}, {"measurement": "L-dC as share of drug excreted in the urine", "setting": "[4]; dival-L-dC 10 mg/kg oral", "value": "~95", "unit": "%"}, {"measurement": "L-dC as share of plasma drug levels at Cmax", "setting": "[4]; dival-L-dC 10 mg/kg oral", "value": "> 99", "unit": "%"}, {"measurement": "administered oral dose recovered in urine after 72 hours", "setting": "[4]; dival-L-dC 10 mg/kg oral", "value": "39±8", "unit": "%"}, {"measurement": "administered oral dose recovered in urine within 4 hours", "setting": "[4]; dival-L-dC 10 mg/kg oral", "value": "~31±8", "unit": "%"}, {"measurement": "renal excretion of L-dU, share of total recovered dose", "setting": "[4]; dival-L-dC 10 mg/kg oral", "value": "approximately 2.5%"}, {"measurement": "renal excretion of β-L-2′-deoxycytidine-5′-valine ester, share of total recovered dose", "setting": "[4]; dival-L-dC 10 mg/kg oral", "value": "~0.2", "unit": "%"}, {"measurement": "L-dU concentration in plasma at 8 hours", "setting": "[4]; dival-L-dC 10 mg/kg oral, one animal", "value": 0.39, "unit": "µM"}, {"measurement": "L-dC as share of drug excreted in the urine", "setting": "[5]", "value": "~89", "unit": "%"}, {"measurement": "administered oral dose recovered in urine after 72 hours", "setting": "[5]", "value": 31, "unit": "%"}, {"measurement": "administered oral dose recovered in urine within 8 hours", "setting": "[5]", "value": "Approximately 26%"}, {"measurement": "renal excretion of L-dU, share of the recovered dose", "setting": "[5]", "value": "approximately 10%"}, {"measurement": "dival-L-dC in plasma at 15 minutes post-dose", "setting": "[5]; detected in only one animal", "value": 0.35, "unit": "µM"}, {"measurement": "in vitro half-life in human plasma", "setting": "[6]", "value": "approximately 39 min"}, {"measurement": "binding to human plasma proteins", "setting": "human plasma proteins", "value": 13.3, "unit": "%"}, {"measurement": "share of absorbed ester converted to L-dC", "setting": "[7]", "value": "more than 99%"}, {"measurement": "share of the oral dose absorbed", "setting": "[7]", "value": "approximately 73%"}, {"measurement": "Solubility (mol/L)", "setting": "[8]", "value": "more than 2.5 mol/L"}]}]}
